Consider 1 compound from patent US12510533B2, “Methods for treating multiple myeloma and the use of companion biomarkers for 4-(4-(4-(((2-(2,6-dioxopiperidin-3-yl)-1-oxoisoindolin-4-yl)oxy)methyl)benzyl)piperazin-1-yl)-3-fluorobenzonitrile” (Celgene Corporation, priority 2018, dated 2025).

One experiment addresses T1, Aiolos (Homo sapiens, UniProt Q96SW2+Q9UKT9).
T1 construct: expressed in transfected cells; host or cells: DF15 multiple myeloma cells
Briefly: Phase 1 study, Aiolos expression by flow cytometry in CD3+ T cells. In kind it is in vivo. As to conditions: QD days 1-10, 15-24/28 and BID days 1-3, 15-17/28; recovered during dosing interruptions. Here is the method:
FIG. 24A and FIG. 24B illustrate that Compound 2 induces Aiolos degradation in CD3+ T cells from peripheral blood of relapsed/refractory multiple myeloma patients after (FIG. 24A) the once daily (QD) 1-10, 15-24/28 schedule, or (FIG. 24B) the twice daily (BID) 1-3, 15-17/28 schedule.
Aiolos expression was measured by flow cytometry in CD3+ T cells before and during Compound 2 treatment in two different dosing schedules (QD administration on days 1 to 10 and days 15 to 24 of a 28 day cycle, and BID administration on days 1 to 3 and days 15 to 17 of a 28 day cycle).

For experiment [1], the system named is H929-1051 and OPM2-P10 cells. In words: Apoptosis induction in H929-1051 and OPM2-P10 multiple myeloma cells. As to conditions: 15 minute or 6 hour transient exposure. In kind it is cell-based, human. As for the experimental part:
FIG. 10 illustrates that continuous, but not transient, exposure to Compound 2 induced apoptosis in multiple myeloma cells. Apoptosis induction by Compound 2 treatment in a lenalidomide-resistant MM cell model (H929-1051 [top row] and a pomalidomide-resistant MM cell model OPM2-P10 [bottom row]) is presented.
The effect of Aiolos and Ikaros degradation on induction of apoptosis was also evaluated. The nearly complete and prolonged substrate suppression observed upon continuous exposure of Compound 2 coincided with apoptosis induction in MM cells (FIG. 10). A continuous single exposure to 0.01 and 0.1 μM Compound 2 led to induction of apoptosis in H929-1051 and OPM2-P10 cells (within 50 to 75 hours) (FIG. 10).

Another experiment concerns sFLC. Briefly: Phase 1 study, serum free light chain (sFLC). It is filed as in vivo, human. As to conditions: two subjects; during the first cycle of treatment. From the text: This is an open-label, multi-center, international, Phase 1 study to assess the safety, PK/PD and preliminary efficacy of Compound 2 in combination with dexamethasone in subjects with RRMM.
Serum samples were taken before and during Compound 2 treatment at specified time points. Serum free light chain (sFLC) can be used as an efficacy measurement in multiple myeloma. The short half-life of sFLC provides an opportunity to follow the dynamic effect of compound treatment on disease burden. […] The extent of decrease from baseline and duration of the effect may predict response to treatment with Compound 2.

The target of another experiment is Ikaros (Homo sapiens, UniProt Q13422+Q96SW2). In words: Ikaros degradation in CD4+ T cells. The conditions noted are these: 24 hours, read-out: Ikaros degradation IC50. In kind it is cell-based. Details: The effects of Compound 2 on the degradation of Ikaros in CD4+ and CD8+ T cells; endogenous in cells; host or cells: CD4+ and CD8+ T cells of healthy donors; CD34+ bone marrow cells of healthy donors; CD3+ T cells of multiple myeloma patients. As for the experimental part:
FIG. 22A-FIG. 22C illustrate that Compound 2 induces degradation of Ikaros in CD4+ T cells. […] Data shown are an average from two donors and are represented as MFI normalized to DMSO control.
The effects of Compound 2 on the degradation of Ikaros in CD4+ and CD8+ T cells over a 72 hour time course were investigated. The ability of Compound 2 to induce effector cytokine release correlated with degradation of Ikaros in CD4+ T cells, a known transcriptional repressor of IL-2 (FIG. 22A-FIG. 22C). […] The ability of Compound 2 to degrade Ikaros was also observed at the 48 and 72 hour time point in both CD4+(FIG. 22B and FIG. 22C) and CD8+ (data not shown) T cell populations. […] Thus, Ikaros and Aiolos can serve as biomarkers of T-cell activation.

The test system of the next experiment is H929-1051 cells. In words: PBMC-induced MM cell lysis, PBMCs and MM cells both pretreated, versus single MM culture (H929-1051). It is filed as cell-based, human. As to conditions: PBMCs and MM cells both preincubated 72 hours. As for the experimental part:
Ninety-six-well dishes were pre-coated with anti-CD3 antibody (OKT3, 3 μg/mL) and incubated at 4° C. overnight before the start of the experiment. Frozen PBMC donor cells were thawed at 37° C. for 2 minutes in RPMI medium with 10% FBS and cell counts and viability were measured on the Vi-CELL analyzer. Peripheral blood mononuclear cells were washed and diluted to 1×10^6 cells/mL and dispensed into the compound-treated plates in a total volume of 200 μL. Cells were incubated with Compound 2 for 2 hours before being transferred onto anti-CD3-coated plates and incubated for an additional 72 hours. At the same time, MM cell lines (NCI-H929, H929-1051, OPM2, OPM2-P10) were diluted to a final concentration of 0.1×10^6 cells/mL and labeled with CellTrace CFSE according to manufacturer's instructions. Multiple myeloma cell lines were then dispensed into compound-treated plates at a total volume of 200 μL and incubated for 72 hours. After 72 hours, the PBMCs and MM cells were counted and transferred into a U-bottom 96-well plate at a final T:E ratio of 1:5. After 24 hours coculture, specific target cell lysis by PBMC mediated apoptosis was measured using Annexin V-AF647 and 7-AAD according to manufacturer's instructions and samples were run on the Attune NxT Cytometer. […]

The test system of a further experiment is H929-1051. In words: Apoptosis by Caspase-Glo 3/7 normalized to CellTiter-Glo in H929-1051 cells, dexamethasone alone or with compound. In kind it is cell-based, human. As to conditions: 72 hours; Compound 2 0.001, 0.01 or 0.1 μM. (In general: In ATP-based viability assays light output follows the ATP content of the culture.)
Experiment [2] concerns relapsed and refractory multiple myeloma. In words: Phase 1 study, response to treatment (IMWG criteria). It is filed as in vivo, human. As to conditions: subjects with >80% decrease in sBCMA or sFLC.

Each structure is given as a SMILES string.

Sequence of Ikaros (Q13422 whole entry): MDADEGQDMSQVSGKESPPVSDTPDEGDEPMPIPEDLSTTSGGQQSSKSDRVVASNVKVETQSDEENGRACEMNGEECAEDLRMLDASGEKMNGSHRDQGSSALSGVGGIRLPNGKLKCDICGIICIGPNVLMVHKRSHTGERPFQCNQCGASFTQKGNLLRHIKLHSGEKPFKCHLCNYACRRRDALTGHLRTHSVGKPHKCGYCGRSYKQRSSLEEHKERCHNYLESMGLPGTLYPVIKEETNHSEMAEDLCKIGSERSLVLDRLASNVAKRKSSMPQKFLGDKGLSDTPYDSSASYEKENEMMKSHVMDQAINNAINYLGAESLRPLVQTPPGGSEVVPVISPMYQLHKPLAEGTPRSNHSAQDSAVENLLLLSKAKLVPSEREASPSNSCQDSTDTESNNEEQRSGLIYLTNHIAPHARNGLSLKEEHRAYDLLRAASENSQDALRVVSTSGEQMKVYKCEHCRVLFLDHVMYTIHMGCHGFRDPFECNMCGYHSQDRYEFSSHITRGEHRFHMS
Sequence of Ikaros (Q16531 2-1140, further chain): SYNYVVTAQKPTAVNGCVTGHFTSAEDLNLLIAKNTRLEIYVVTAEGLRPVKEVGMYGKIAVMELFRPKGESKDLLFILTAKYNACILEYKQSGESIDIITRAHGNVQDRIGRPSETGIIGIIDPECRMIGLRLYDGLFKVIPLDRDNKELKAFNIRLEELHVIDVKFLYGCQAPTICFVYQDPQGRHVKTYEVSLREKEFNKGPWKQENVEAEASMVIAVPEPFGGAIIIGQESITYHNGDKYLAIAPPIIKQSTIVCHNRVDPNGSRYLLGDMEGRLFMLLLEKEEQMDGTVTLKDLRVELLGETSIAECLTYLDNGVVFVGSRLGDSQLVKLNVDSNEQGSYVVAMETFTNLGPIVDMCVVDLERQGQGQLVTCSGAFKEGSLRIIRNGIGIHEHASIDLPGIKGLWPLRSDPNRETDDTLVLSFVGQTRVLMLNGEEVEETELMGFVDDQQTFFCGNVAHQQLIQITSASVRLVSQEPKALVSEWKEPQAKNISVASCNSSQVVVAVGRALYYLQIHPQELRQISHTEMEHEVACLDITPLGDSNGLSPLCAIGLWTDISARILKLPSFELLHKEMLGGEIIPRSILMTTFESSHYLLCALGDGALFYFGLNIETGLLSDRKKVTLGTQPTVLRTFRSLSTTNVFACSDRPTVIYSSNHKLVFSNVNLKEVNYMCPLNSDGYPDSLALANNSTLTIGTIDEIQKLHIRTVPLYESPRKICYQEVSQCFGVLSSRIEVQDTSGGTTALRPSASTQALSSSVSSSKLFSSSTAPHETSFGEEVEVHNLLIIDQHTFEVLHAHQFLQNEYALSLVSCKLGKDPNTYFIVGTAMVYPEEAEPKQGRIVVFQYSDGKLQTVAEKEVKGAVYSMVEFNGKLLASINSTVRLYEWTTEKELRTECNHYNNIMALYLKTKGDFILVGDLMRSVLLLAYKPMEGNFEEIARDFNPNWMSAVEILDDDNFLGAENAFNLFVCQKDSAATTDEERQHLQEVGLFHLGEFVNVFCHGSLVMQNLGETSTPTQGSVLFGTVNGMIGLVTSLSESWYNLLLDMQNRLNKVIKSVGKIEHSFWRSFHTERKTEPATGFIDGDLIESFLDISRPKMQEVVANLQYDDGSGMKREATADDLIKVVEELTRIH
Sequence of Ikaros (Q96SW2 whole entry): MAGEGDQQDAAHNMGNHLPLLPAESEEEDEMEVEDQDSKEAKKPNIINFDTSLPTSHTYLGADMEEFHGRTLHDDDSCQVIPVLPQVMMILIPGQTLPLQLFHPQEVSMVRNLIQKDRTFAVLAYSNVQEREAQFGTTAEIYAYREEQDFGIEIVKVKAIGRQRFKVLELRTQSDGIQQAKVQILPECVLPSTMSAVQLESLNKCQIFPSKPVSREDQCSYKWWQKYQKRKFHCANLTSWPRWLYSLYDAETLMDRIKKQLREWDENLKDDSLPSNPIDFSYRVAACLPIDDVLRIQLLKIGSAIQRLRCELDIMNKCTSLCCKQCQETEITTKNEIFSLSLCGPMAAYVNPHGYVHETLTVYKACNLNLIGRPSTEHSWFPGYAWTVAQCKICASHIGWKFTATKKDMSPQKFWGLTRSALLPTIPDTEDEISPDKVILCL
T1 sequence (Q9UKT9 whole entry): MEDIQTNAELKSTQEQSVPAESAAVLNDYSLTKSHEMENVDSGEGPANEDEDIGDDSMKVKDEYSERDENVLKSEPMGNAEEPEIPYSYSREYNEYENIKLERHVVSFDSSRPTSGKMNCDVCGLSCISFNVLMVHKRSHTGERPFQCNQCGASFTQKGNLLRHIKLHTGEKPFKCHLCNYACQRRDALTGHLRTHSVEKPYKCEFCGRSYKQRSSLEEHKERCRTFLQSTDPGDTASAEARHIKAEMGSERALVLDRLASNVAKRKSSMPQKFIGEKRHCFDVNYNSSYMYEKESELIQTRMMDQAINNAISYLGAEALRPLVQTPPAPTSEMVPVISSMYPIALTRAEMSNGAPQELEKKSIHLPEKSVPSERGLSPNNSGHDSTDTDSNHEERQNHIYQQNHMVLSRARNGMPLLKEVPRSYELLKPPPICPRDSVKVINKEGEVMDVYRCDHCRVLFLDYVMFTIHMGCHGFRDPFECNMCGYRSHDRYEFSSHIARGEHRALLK
T1 sequence (Q96SW2 whole entry): as the sequence (Q96SW2 whole entry) above
T1 sequence (Q16531 2-1140, further chain): as the sequence (Q16531 2-1140, further chain) above

`N#Cc1ccc(N2CCN(Cc3ccc(COc4cccc5c4CN([C@H]4CCC(=O)NC4=O)C5=O)cc3)CC2)c(F)c1` [Compound 2, (S)-4-(4-(4-(((2-(2,6-dioxopiperidin-3-yl)-1-oxoisoindolin-4-yl)oxy)methyl)benzyl)piperazin-1-yl)-3-fluorobenzonitrile]: the “Aiolos degradation in CD3+ T cells” value at Aiolos was “dose dependent”. The “effect of transient exposure on apoptosis” value in experiment [1] is on record as “precluded the induction of apoptosis”. In addition, the “decrease in sFLC” value in the experiment with sFLC is recorded as over 80%. The DC50 on Ikaros worked out at 300 pM. Also, the “enhancement of killing, IC50 of single MM culture versus immune and tumor cell co-culture” value in the experiment with H929-1051 cells was about 6000 fold. Also, the “shift of the onset of dexamethasone activity in the presence of Compound 2” value with H929-1051 came to 1 log. The response to treatment result in experiment [2] is “VGPR and PR”.
